Assay results from PMC10935965, “An odorant receptor mediates the avoidance of Plutella xylostella against parasitoid” (BMC Biology, 2024).
One block for each molecule: values may come before it.

Experiments:
PxylOR16/PxylOrco [1] = biological target: T1, PxylOR16/PxylOrco (Plutella xylostella, UniProt V9SFT8); test: two-electrode voltage clamp, Xenopus oocytes; format: cell-based; conditions: agonist, co-expressed with PxylOrco, holding potential -80 mV, Ringer's buffer
T1 construct: no tag stated; with Odorant receptor coreceptor
T1 sequence (V9SFT8 1-405): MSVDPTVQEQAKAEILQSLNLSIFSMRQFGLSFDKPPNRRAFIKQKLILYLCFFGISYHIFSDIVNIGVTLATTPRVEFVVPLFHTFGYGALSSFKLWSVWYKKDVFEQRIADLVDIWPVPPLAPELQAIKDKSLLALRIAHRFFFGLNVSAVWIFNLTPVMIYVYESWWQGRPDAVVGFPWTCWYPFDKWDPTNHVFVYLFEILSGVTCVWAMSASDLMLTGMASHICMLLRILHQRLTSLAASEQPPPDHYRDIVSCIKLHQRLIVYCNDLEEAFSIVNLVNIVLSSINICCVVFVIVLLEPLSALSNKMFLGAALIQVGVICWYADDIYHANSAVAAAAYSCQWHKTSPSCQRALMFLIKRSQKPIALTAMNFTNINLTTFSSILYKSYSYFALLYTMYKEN
T1 sequence (D0EZE1 1-471 partner): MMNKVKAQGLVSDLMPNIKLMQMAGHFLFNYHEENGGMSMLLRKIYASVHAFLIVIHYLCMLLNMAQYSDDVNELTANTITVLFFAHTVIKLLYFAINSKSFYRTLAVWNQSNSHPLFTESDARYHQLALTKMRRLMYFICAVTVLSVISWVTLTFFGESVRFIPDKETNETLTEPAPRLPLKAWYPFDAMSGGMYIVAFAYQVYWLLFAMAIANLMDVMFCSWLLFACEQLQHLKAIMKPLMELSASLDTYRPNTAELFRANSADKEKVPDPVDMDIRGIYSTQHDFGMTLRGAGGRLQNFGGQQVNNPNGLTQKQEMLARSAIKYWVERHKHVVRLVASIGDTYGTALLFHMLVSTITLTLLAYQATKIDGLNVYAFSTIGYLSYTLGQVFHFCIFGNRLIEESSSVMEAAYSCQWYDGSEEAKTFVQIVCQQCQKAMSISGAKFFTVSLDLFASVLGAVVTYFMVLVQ

PxylOR16/PxylOrco [2] = biological target: T1, PxylOR16/PxylOrco; test: two-electrode voltage clamp, Xenopus oocytes; format: cell-based

SMILES: CCCCCCCO [1-heptanol]
inward current response at 10^-4 M (PxylOR16/PxylOrco [1]): they also responded weakly to two other volatiles (octyl acetate and 1-heptanol)

EC50 (PxylOR16/PxylOrco [2]): 17.6 µM
SMILES: CCCCCCC=O [heptanal]

SMILES: CCCCCCCCOC(C)=O [octyl acetate]
inward current response at 10^-4 M (PxylOR16/PxylOrco [1]; weak agonist, 10^-4 M): they also responded weakly to two other volatiles (octyl acetate and 1-heptanol)
